{
  "source": "patent US6875571B2",
  "about": "“NF-AT polypeptides and polynucleotides and screening methods for immunosuppressive agents” (The Board of Trustees of the Leland Stanford Junior …, priority 1991, dated 2005)",
  "molecules": {"B1": {"name": "NF-ATc: human cytosolic NF-AT subunit, protein of 716 amino acids (SEQ ID NO: 38), expressed from cDNA (protein)", "chain": "MPSTSFPVPSKFPLGPAAAVFGRGETLGPAPRAGGTMKSAEEEHYGYASSNVSPALPLPTAHSTLPAPCHNLQTSTPGIIPPADHPSGYGAALDGCPAGYFLSSGHTRPDGAPALESPRIEITSCLGLYHNNNQFFHDVEVEDVLPSSKRSPSTATLSLPSLEAYRDPSCLSPASSLSSRSCNSEASSYESNYSYPYASPQTSPWQSPCVSPKTTDPEEGFPRGLGACTLLGSPQHSPSTSPRASVTEESWLGARSSRPASPCNKRKYSLNGRQPPYSPHHSPTPSPHGSPRVSVTDDSWLGNTTQYTSSAIVAAINALTTDSSLDLGDGVPVKSRKTTLEQPPSVALKVEPVGEDLGSPPPPADFAPEDYSSFQHIRKGGFCDQYLAVPQHPYQWAKPKPLSPTSYMSPTLPALDWQLPSHSGPYELRIEVQPKSHHRAHYETEGSRGAVKASAGGHPIVQLHGYLENEPLMLQLFIGTADDRLLRPHAFYQVHRITGKTVSTTSHEAILSNTKVLEIPLLPENSMRAVIDCACILKLRNSDIELRKGETDIGRKNTRVRLVFRVHVPQPSGRTLSLQVASNPIECSQRSAQELPLVEKQSTDSYPVVGGKKMVLSGHNFLQDSKVIFVEKAPDGHHVWEMEAKTDRDLCKPNSLVVEIPPFRNQRITSPVHVSFYVCNGKRKRSQYQRFTYLPANGNAIFLTVSREHERVGCFF", "modifications": "human"}},
  "key": {"NF-AT [1]": {"system": "NF-AT", "assay": "Gel mobility shift assay of NF-AT DNA binding activity in extracts of treated Jurkat cells", "type": "cell-based, human", "method": "Nuclear extracts were made according to the procedures of Ohlsson and Edlund (Cell 45:35 (1986)). Briefly, nuclei were extracted with 0.3 M (NH4)2SO4 and the fraction that contained the nuclear proteins was precipitated with 0.2 g/ml (NH4)2SO4 and dialyzed for 4 h. at 4° C. The NF-AT binding site of the IL-2 enhancer (−290 and −263) was used as a probe for binding activity. The binding experiment was carried out essentially as described in Shaw, J. P. Science 241:202-205 (1988)).\nNFATZ Jurkat cells were pretreated with 100 μM anisoymycin (Sigma), a protein synthesis inhibitor, for 30 minutes before stimulating the cells. Conditions for activating the cells and preparing nuclear and cytoplasmic extracts are described in Example 3.\n(§1) NFATZ Jurkat cells and JK12/90.1 cells (a gift from N. Shastri) were stimulated for 2 hours with 20 ng/ml PMA and 2 μM ionomycin. […] Nuclear extracts were prepared as described previously with modifications. Cytoplasmic extracts were made from the same cells as the nuclear extracts. Following lysis of the cells with buffer A [10 mM Hepes (pH 7.8), 15 mM Kcl, 2 mM MgCl2, 1 mM DTT, 0.1 mM EDTA, 0.1 mM PMSF] plus 0.05% NP-40, and pelleting of the nuclei, the cytoplasmic fraction was removed and stabilized with 10% (vol/vol) glycerol and 1/10 volume of buffer B [0.3 M Hepes (pH 7.8), 1.4 M Kcl, and 30 mM MgCl2]. The cytoplasmic extract was centrifuged at 200,000 g for 15 minutes. An equal volume of 3 M (NH4)2SO4 (pH 7.9) was added to the supernatant, and precipitated proteins were pelleted at 100,000 g for 10 minutes. The pelleted cytoplasmic proteins were resuspended in buffer C [50 mM Hepes (pH 7.8), 50 mM KCl, 1 mM DTT, 0.1 mM EDTA, 0.1 mM PMSF, 10% (vol/vol) glycerol] and desalted by passage over a P6DG column (BioRad). Protein concentrations were determined using a BioRad protein assay kit. To assess the completeness of the nuclear and cytoplasmic fractionation, we assayed for Oct-1 (a constitutive nuclear located DNA binding protein) binding activity and β-galactosidase (cytoplasmic localized) enzyme activity. […]"}, "[2]": {"system": "NFATZ Jurkat cells and JK12/90.1 cells", "assay": "Toxic effects on the stimulated cells", "type": "cell-based", "conditions": "FK506 100 ng/ml or CsA 500 ng/ml, five minutes prior to PMA and ionomycin, 2 hours"}, "[3]": {"system": "nuclear component of NF-AT", "assay": "Reconstitution of NF-AT binding: synthesis of the nuclear component", "type": "cell-based, human", "conditions": "PMA/ionomycin-stimulated cells", "method": "as §1"}, "NF-AT [4]": {"system": "NF-AT", "assay": "In vitro transcription directed by multimerized NF-AT binding sites (G-less) by nuclear extracts of treated Jurkat cells", "type": "cell-based, human", "conditions": "nuclear extracts of stimulated/FK506-treated cells, 10 ng/ml", "method": "The effect of FK506 on the ability of NF-AT to direct transcription was tested by preparing nuclear extracts from stimulated or stimulated/FK506-treated cells and testing their ability to transcribe a G-less cassette in which transcription was dependent upon three NF-AT sites located within a synthetic promoter.\nPromoter constructs, nuclear extracts and transcription reactions were prepared as described. NFATZ Jurkat cells, derived from a human T cell leukemia, were stimulated with […] PMA (Sigma), 2 μM ionomycin (Calbiochem) for 2 hours. FK506 was used at 10 ng/ml and added five minutes prior to the addition of PMA and ionomycin. […] Transcription was quantitated using a radioanalytic imaging system (AMBIS). […]\nIn general, transcription reactions (20 μl) contained 40 μg/ml of circular DNA template [400 ng of the test construct, 40 ng of the AdMLP G-less construct, and 360 ng of poly dI-dC (Pharmacia)] and between 3-5 mg/ml nuclear protein extract in a buffer containing 25 mM Hepes (pH 7.6), 50 mM KCl, 6 mM MgCl2, 0.6 mM each of ATP and CTP, 7 μM UTP, 7 μCi [a-^32P] […] The pellets were rinsed with 70% ethanol, air dried, and resuspended in 10 μl of loading dye (90% formamide, 0.01% xylene cyanol, and 0.01% bromophenol blue in 1×TBE.) The transcripts were analyzed on 6% denaturing polyacrylamide gels. […]"}, "NF-ATc": {"system": "NF-ATc", "assay": "Western blot mobility of epitope tagged NF-ATc expressed in Jurkat cells", "type": "cell-based, human", "conditions": "stimulated 2 hrs, whole cell lysates", "method": "Whole cell lysates were analyzed by western blotting as in FIG. 13.\nThe cDNA shown in FIG. 12 was fused to the Hemophilus influenza hemaglutinin (HA) 12 amino acid epitope tag in the determined reading frame and operably linked to the SRα promoter in the vector pBJ5 (Lin et al, 1990, Science 249:677-679). The resultant construct was transiently transfected by electroporation into Jurkat human T lymphocytes, and into Cos fibroblast cells. Expression of the epitope-tagged NF-ATc protein was determined by Western blotting of whole cell extracts prepared from the transfected cells, using an antibody (12CA5, Berkeley Antibody Co., CA) that detects the HA epitope.\nPost-translational modification of NF-ATc was investigated in cells treated with agents that activate PKC or increase intracellular Ca++. […] Whole cell lysates were analyzed by western blotting as in FIG. 13. […] This is consistent with a dephosphorylation event, possibly by direct action of calcineurin (Clipstone and Crabtree (1992) Nature 357: 695-697), however, any of a large number of processes could produce the observed mobility changes. There is evidence that NF-ATp is a substrate for calcineurin, however, the mobility shifts produced by phosphatase treatment of NF-ATp or NF-ATc are far greater than those observed in FIG. 19. These observations indicate that NF-ATc is not a direct substrate of calcineurin."}, "NF-AT binding site": {"system": "NF-AT binding site", "assay": "NF-AT luciferase reporter co-transfected with NF-ATc expression vector in Cos and Jurkat cells", "type": "cell-based", "conditions": "overexpression in Cos cells and Jurkat cells", "method": "(§2) The NF-ATc cDNA was operably linked to a portion of the SV40 early gene promoter and the mV transcription regulatory regions in the pBJ vector. This expression vector was co-tranfected into Jurkat and Cos cells with either a) three copies of NF-AT binding site linked to and directing transcription of luciferase (results shown in FIGS. 14A and 14B) the entire IL-2 enhancer/promoter directing transcription of luciferase (results shown in FIG. 14B). Cytosolic extracts were prepared and luciferase assays carried out by standard procedures (de Wet et al, 1987, Mol. Cell. Biol. 7:724-[…])."}, "IL-2 promoter": {"system": "IL-2 promoter", "assay": "IL-2 enhancer/promoter luciferase reporter co-transfected with NF-ATc expression vector in Cos cells", "type": "cell-based", "conditions": "overexpression in Cos cells", "method": "as §2"}},
  "data": [
    {"molecule": "COc1ccc(C[C@H]2NC[C@H](O)[C@H]2OC(C)=O)cc1", "note": "[anisomycin]", "values": [
      {"measurement": "appearance of the NF-AT complex in activated T cells", "setting": "NF-AT [1]; NFATZ Jurkat cells pretreated with 100 μM for 30 minutes before stimulation", "result": "completely blocked"},
      {"measurement": "ability of cytoplasmic extracts from treated cells to reconstitute the NF-AT complex", "setting": "NF-AT [1]; cytoplasmic extracts of cells grown with 100 μM protein synthesis inhibitor", "result": "able to reconstitute"}
    ]},
    {"molecule": "C=CC[C@@H]1/C=C(\\C)C[C@H](C)C[C@H](OC)[C@H]2O[C@@](O)(C(=O)C(=O)N3CCCC[C@H]3C(=O)O[C@H](/C(C)=C/[C@@H]3CC[C@@H](O)[C@H](OC)C3)[C@H](C)[C@@H](O)CC1=O)[C@H](C)C[C@@H]2OC", "note": "[FK506]", "values": [
      {"measurement": "reduction of NF-AT DNA-binding activity in the extracts", "setting": "NF-AT [1]; nuclear extracts of stimulated/FK506-treated cells, 10 ng/ml", "result": "50 to 80", "unit": "%"},
      {"measurement": "toxic effects to the cells", "setting": "[2]", "result": "without any toxic effects"},
      {"measurement": "synthesis of the nuclear component of NF-AT", "setting": "[3]", "result": "did not inhibit"},
      {"measurement": "reduction of in vitro transcription directed by multimerized NF-AT binding sites", "setting": "NF-AT [4]", "result": 2.5, "unit": "fold"}
    ]},
    {"molecule": "C[C@H](CCC(=O)O)C[C@H](C)C[C@H](C)C(=O)/C=C(\\O)[C@H](C)C[C@H](C)C/C=C/[C@@H](C)[C@@H](O)[C@@H](C)[C@@H](O)C[C@@H]1CC[C@@](C)([C@H]2CC[C@@](C)([C@@H](C)O)O2)O1", "note": "[ionomycin]", "values": [
      {"measurement": "mobility of NF-ATc versus non-treated cells", "setting": "NF-ATc", "result": "migrates faster"}
    ]},
    {"molecule": "CCCCCCCCCCCCCC(=O)O[C@@H]1[C@@H](C)[C@@]2(O)[C@@H](C=C(CO)C[C@]3(O)C(=O)C(C)=C[C@@H]23)[C@@H]2C(C)(C)[C@]12OC(C)=O", "note": "[PMA, phorbol myristate acetate]", "values": [
      {"measurement": "mobility of NF-ATc versus non-treated cells", "setting": "NF-ATc", "result": "slower migrating"}
    ]},
    {"molecule": "B1", "values": [
      {"measurement": "enhancement of NF-AT-dependent transcription", "setting": "NF-AT binding site", "result": "50-1000 fold"},
      {"measurement": "activation of the IL-2 promoter", "setting": "IL-2 promoter", "result": "activates"}
    ]}
  ]
}
